Laboratory results taken from patent publication EP0038629A1, “Virazole derivatives, process for their preparation and use as antiviral agents” (priority 1980, dated 1981).

Experiments:
[1] = test system: influenza A/Port Chalmers/l/73 (H3N2) virus; assay: Diffusion test (plaque inhibition zone); assay type: cell-based; conditions: diameter of plaque-free zone, 0.02 ml of 1 mg/ml solution in 6 mm well, infected MDCK cell monolayers; for zone of inhibition at 1000 µg/mL: Influenza A virus, H3N2, read-out: Active Zone
Protocol: Diffusion Test. 10 mg/ml solutions of the compounds in water were diluted to a concentration of 1 mg/ml with Eagle's minimum essential medium and 0.02 ml introduced into wells 6mm in diameter cut into an agar layer above influenza A/Port Chalmers/l/73 (H3N2) virus infected MDCK cell monolayers. An infection level giving an even distribution of subconfluent plaques was used. The diameters of zones around the wells free from virus induced plaques (inhibition zones) and diameters of zones in which cytotoxicity was apparent are reported.

[2] = test system: influenza A/Port Chalmers/1/73 (H3N2) virus; assay: Plaque reduction assay; assay type: cell-based; conditions: MDCK cells; for inhibition at 1.3 µM / inhibition at 4.1 µM / inhibition at 13 µM / inhibition at 41 µM / inhibition at 130 µM / inhibition at 410 µM: Influenza A virus, H3N2, read-out: % Plaque Reduction at Concentration Given
From the text: More accurate quantitation of antiviral activity was achieved by incorporated of concentrations of the test compound varying from 1.3 x 10^-6M to 4.1 x 10^-4M into the agar overlay above the influenza A/Port Chalmers/1/73 (H3N2) virus infected MDCK cell monolayers. The % reduction in the number of virus induced plaques at each compound concentration is given below.

[3] = test system: MDCK cell monolayers; conditions: diameter of zone with apparent cytotoxicity; 0.02 ml of 1 mg/ml solution in 6 mm well

Molecule	Active Zone [1] [mm]	% Plaque Reduction at Concentration Given ([2]; 0.13 x 10^-5 M in agar overlay, 1.3 µM) [%]	% Plaque Reduction at Concentration Given ([2]; 0.41 x 10^-5 M in agar overlay, 4.1 µM) [%]	% Plaque Reduction at Concentration Given ([2]; 1.3 x 10^-5 M in agar overlay, 13 µM) [%]	% Plaque Reduction at Concentration Given ([2]; 4.1 x 10^-5 M in agar overlay, 41 µM) [%]	% Plaque Reduction at Concentration Given ([2]; 13 x 10^-5 M in agar overlay, 130 µM) [%]	% Plaque Reduction at Concentration Given ([2]; 41 x 10^-5 M in agar overlay, 410 µM) [%]	Toxic Zone [3] [mm]	zone of inhibition at 1000 µg/mL [1] [mm]	inhibition at 1.3 µM ([2]; 0.13 x 10^-5 M in agar overlay) [%]	inhibition at 4.1 µM ([2]; 0.41 x 10^-5 M in agar overlay) [%]	inhibition at 13 µM ([2]; 1.3 x 10^-5 M in agar overlay) [%]	inhibition at 41 µM ([2]; 4.1 x 10^-5 M in agar overlay) [%]	inhibition at 130 µM ([2]; 13 x 10^-5 M in agar overlay) [%]	inhibition at 410 µM ([2]; 41 x 10^-5 M in agar overlay) [%]
1-[β-D-(5'-succinyl-2',3'-carbonyl)ribofuranosyl]-3-carbamoyl-1,2,4-triazole amantadine salt [Compound 6]	55	44	63	89	100	100	100	0							
NC(=O)c1ncn([C@@H]2O[C@H](CO)[C@@H](O)[C@H]2O)n1 [Compound 1, 1-β-D-ribofuranosyl-3-carbamoyl-1,2,4-triazole, reference compound]								0	28	0	43	94	100	100	100
NC(=O)c1ncn([C@@H]2O[C@H](COC(=O)CCC(=O)O)[C@H]3OC(=O)O[C@H]32)n1 [Compound 5, 1-[β-D-(5'-succinyl-2',3'-carbonyl)ribofuranosyl]-3-carbamoyl-1,2,4,-triazole]								0	17	0	0	0	0	0	0
